What was measured:
[1] = biological target: Apoptosis regulator Bcl-2 (Homo sapiens, UniProt P10415); assay: Inhibition of Bcl-2 (unknown origin) using 5-FAM-Bid-BH3 as substrate preincubated for 30 mins before substrate addition measured after 20 mins by fluorescence polarization technique
K562 = assay: cells; conditions: Homo sapiens, K562, 48 h
cells = conditions: Homo sapiens, PC-3, 48 h
[2] = biological target: Induced myeloid leukemia cell differentiation protein Mcl-1 (Homo sapiens, UniProt Q07820); assay: Inhibition of Mcl-1 (unknown origin) using 5-FAM-Bid-BH3 as substrate preincubated for 30 mins before substrate addition measured after 20 mins by fluorescence polarization technique
Sequence of Induced myeloid leukemia cell differentiation protein Mcl-1 (Q07820 whole entry): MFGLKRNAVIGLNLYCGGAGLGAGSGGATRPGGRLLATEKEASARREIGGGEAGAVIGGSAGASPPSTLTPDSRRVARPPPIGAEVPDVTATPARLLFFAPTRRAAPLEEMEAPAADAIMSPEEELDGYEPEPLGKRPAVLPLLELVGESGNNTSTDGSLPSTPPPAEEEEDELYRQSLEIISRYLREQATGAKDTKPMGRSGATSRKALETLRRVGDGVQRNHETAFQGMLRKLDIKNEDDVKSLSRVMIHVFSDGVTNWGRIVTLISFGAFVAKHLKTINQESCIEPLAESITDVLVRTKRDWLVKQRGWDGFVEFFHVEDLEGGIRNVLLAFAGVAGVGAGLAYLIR

Bcl-2-like protein 1 = Bcl-2-like protein 1 (Homo sapiens, UniProt Q07817); assay: Inhibition of Bcl-XL (unknown origin) using 5-FAM-Bid-BH3 as substrate preincubated for 30 mins before substrate addition measured after 20 mins by fluorescence polarization technique
Sequence of Bcl-2-like protein 1 (Q07817 whole entry): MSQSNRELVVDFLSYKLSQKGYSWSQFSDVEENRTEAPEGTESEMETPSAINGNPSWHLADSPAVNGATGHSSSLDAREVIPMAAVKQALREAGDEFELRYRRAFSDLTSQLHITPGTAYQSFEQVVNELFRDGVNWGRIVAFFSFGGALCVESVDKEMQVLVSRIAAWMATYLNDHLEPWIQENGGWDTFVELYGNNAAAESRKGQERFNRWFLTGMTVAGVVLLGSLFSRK

MDA-MB-231 = assay: Antiproliferative activity against human MDA-MB-231 cells after 48 hrs by MTT assay; format: functional, cell-based; conditions: MDA-MB-231, 48 h

Sequence of Apoptosis regulator Bcl-2 (P10415 whole entry): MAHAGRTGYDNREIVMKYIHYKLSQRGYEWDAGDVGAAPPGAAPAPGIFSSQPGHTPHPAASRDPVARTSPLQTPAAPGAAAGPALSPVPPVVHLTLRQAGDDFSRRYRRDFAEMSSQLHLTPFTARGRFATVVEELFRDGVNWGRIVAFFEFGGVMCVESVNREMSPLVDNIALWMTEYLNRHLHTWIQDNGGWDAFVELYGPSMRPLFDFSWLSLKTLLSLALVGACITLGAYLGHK

| Compound | Ki [1] | further results |
| --- | --- | --- |
| CC(C)[C@@H](C(=O)NS(=O)(=O)c1ccccc1)N1C(=O)/C(=C/c2ccc(-c3ccccc3)cc2)SC1=S | 630 nM | – |
| O=C(NS(=O)(=O)c1ccccc1)[C@H](Cc1c[nH]c2ccccc12)N1C(=O)/C(=C/c2ccc(-c3ccccc3)cc2)SC1=S | 730 nM | – |
| C[C@@H](C(=O)NS(=O)(=O)c1ccccc1)N1C(=O)/C(=C/c2ccc(-c3ccccc3)cc2)SC1=S | 2400 nM | – |
| CC[C@H](C)[C@@H](C(=O)NS(=O)(=O)c1ccccc1)N1C(=O)/C(=C/c2ccc(-c3ccccc3)cc2)SC1=S | 410 nM | – |
| CSCC[C@@H](C(=O)NS(=O)(=O)c1ccccc1)N1C(=O)/C(=C/c2ccc(-c3ccccc3)cc2)SC1=S | 950 nM | – |
| O=C(NS(=O)(=O)c1ccccc1)[C@H](Cc1c[nH]c2ccccc12)N1C(=O)/C(=C/c2ccc(-c3ccc(Cl)cc3)cc2)SC1=S | 470 nM | – |
| O=C(NS(=O)(=O)c1ccccc1)[C@H](Cc1c[nH]c2ccccc12)N1C(=O)/C(=C/c2ccc(-c3ccc([N+](=O)[O-])cc3)cc2)SC1=S | 540 nM | – |
| O=C(NS(=O)(=O)c1ccc([N+](=O)[O-])cc1)[C@H](Cc1ccccc1)N1C(=O)/C(=C/c2ccc(-c3ccccc3)cc2)SC1=S | 450 nM | – |
| O=C(NS(=O)(=O)c1ccc(Cl)c([N+](=O)[O-])c1)[C@H](Cc1ccccc1)N1C(=O)/C(=C/c2ccc(-c3ccccc3)cc2)SC1=S | 540 nM | – |
| O=C(NS(=O)(=O)c1ccc(Cl)c([N+](=O)[O-])c1)[C@H](Cc1ccccc1)N1C(=O)/C(=C/c2ccc(-c3ccc(Cl)cc3)cc2)SC1=S | 1900 nM | – |
| O=C(NS(=O)(=O)c1ccc(Cl)c([N+](=O)[O-])c1)[C@H](Cc1ccccc1)N1C(=O)/C(=C/c2ccc(-c3ccc([N+](=O)[O-])cc3)cc2)SC1=S | 2400 nM | – |
| O=C(NS(=O)(=O)c1ccc(Cl)c([N+](=O)[O-])c1)[C@H](Cc1ccccc1)N1C(=O)/C(=C/c2ccc(-c3ccc(C(F)(F)F)cc3)cc2)SC1=S | 870 nM | – |
| O=C(NS(=O)(=O)c1ccc(Cl)c([N+](=O)[O-])c1)[C@H](Cc1ccc(Br)cc1)N1C(=O)/C(=C/c2ccc(-c3ccc([N+](=O)[O-])cc3)cc2)SC1=S | > 50000 nM | – |
| O=C(NS(=O)(=O)c1ccc(Cl)c([N+](=O)[O-])c1)[C@H](Cc1ccc(Br)cc1)N1C(=O)/C(=C/c2ccc(-c3ccc(C(F)(F)F)cc3)cc2)SC1=S | 1200 nM | – |
| O=C(NS(=O)(=O)c1ccc(Cl)c([N+](=O)[O-])c1)[C@H](Cc1c[nH]c2ccccc12)N1C(=O)/C(=C/c2ccc(-c3ccc(Cl)cc3)cc2)SC1=S | 5600 nM | – |
| O=C(NS(=O)(=O)c1ccc(Cl)c([N+](=O)[O-])c1)[C@H](Cc1c[nH]c2ccccc12)N1C(=O)/C(=C/c2ccc(-c3ccc([N+](=O)[O-])cc3)cc2)SC1=S | 750 nM | – |
| O=C(NS(=O)(=O)c1ccc([N+](=O)[O-])cc1)[C@H](Cc1c[nH]c2ccccc12)N1C(=O)/C(=C/c2ccc(-c3ccc(Cl)cc3)cc2)SC1=S | 680 nM | – |
| O=C(NS(=O)(=O)c1ccc([N+](=O)[O-])cc1)[C@H](Cc1c[nH]c2ccccc12)N1C(=O)/C(=C/c2ccc(-c3ccc(C(F)(F)F)cc3)cc2)SC1=S | 750 nM | – |
| Cc1ccc(-c2ccc(/C=C3\SC(=S)N([C@@H](Cc4c[nH]c5ccccc45)C(=O)NS(=O)(=O)c4ccc([N+](=O)[O-])cc4)C3=O)cc2)cc1 | 720 nM | – |
| O=C(NS(=O)(=O)c1ccc([N+](=O)[O-])cc1)[C@H](Cc1c[nH]c2ccccc12)N1C(=O)/C(=C/c2ccc(-c3ccc([N+](=O)[O-])cc3)cc2)SC1=S | 80 nM | – |
| Cc1ccc(S(=O)(=O)NC(=O)[C@H](Cc2ccccc2)N2C(=O)/C(=C/c3ccc(-c4ccccc4)cc3)SC2=S)cc1 | 720 nM | Ki [2]: 250 nM; Ki (Bcl-2-like protein 1; read-out: Ki): 660 nM |
| Cc1cc2c(C(C)C)c(O)c(O)c(C=O)c2c(O)c1-c1c(C)cc2c(C(C)C)c(O)c(O)c(C=O)c2c1O [GOSSYPOL] | – | IC50 (K562): 4550 nM; IC50 (cells): 6260 nM; IC50 (MDA-MB-231): 9210 nM |

Continued, in another order:

| Ki [1] | Compound | further results |
| --- | --- | --- |
| 520 nM | O=C(NS(=O)(=O)c1ccccc1)[C@H](Cc1ccc(Br)cc1)N1C(=O)/C(=C/c2ccc(-c3ccccc3)cc2)SC1=S | – |
| 460 nM | O=C(NS(=O)(=O)c1ccccc1)[C@H](Cc1ccccc1)N1C(=O)/C(=C/c2ccc(-c3ccc([N+](=O)[O-])cc3)cc2)SC1=S | – |
| 460 nM | COC(=O)c1ccc(-c2ccc(/C=C3\SC(=S)N([C@@H](Cc4ccc(Br)cc4)C(=O)NS(=O)(=O)c4ccccc4)C3=O)cc2)cc1 | – |
| 420 nM | O=C(NS(=O)(=O)c1ccccc1)[C@H](Cc1ccc(Br)cc1)N1C(=O)/C(=C/c2ccc(-c3ccc([N+](=O)[O-])cc3)cc2)SC1=S | IC50 (K562): > 50000 nM; IC50 (cells): > 50000 nM; Ki [2]: 86 nM; Ki (Bcl-2-like protein 1; read-out: Ki): 540 nM; IC50 (MDA-MB-231): 46200 nM |
| 470 nM | O=C(NS(=O)(=O)c1ccccc1)[C@H](Cc1ccc(Br)cc1)N1C(=O)/C(=C/c2ccc(-c3ccc(Cl)cc3)cc2)SC1=S | IC50 (K562): 20900 nM; IC50 (cells): > 50000 nM; Ki [2]: 66 nM; Ki (Bcl-2-like protein 1; read-out: Ki): 390 nM; IC50 (MDA-MB-231): 28800 nM |
| 510 nM | O=C(NS(=O)(=O)c1ccc(Cl)cc1)[C@H](Cc1ccccc1)N1C(=O)/C(=C/c2ccc(-c3ccccc3)cc2)SC1=S | – |
| 660 nM | O=C(NS(=O)(=O)c1ccc([N+](=O)[O-])cc1)[C@H](Cc1ccccc1)N1C(=O)/C(=C/c2ccc(-c3ccc(Cl)cc3)cc2)SC1=S | – |
| 1400 nM | COC(=O)c1ccc(-c2ccc(/C=C3\SC(=S)N([C@@H](Cc4ccccc4)C(=O)NS(=O)(=O)c4ccc(Cl)c([N+](=O)[O-])c4)C3=O)cc2)cc1 | – |
| 800 nM | O=C(NS(=O)(=O)c1ccc([N+](=O)[O-])cc1)[C@H](Cc1ccccc1)N1C(=O)/C(=C/c2ccc(-c3ccc([N+](=O)[O-])cc3)cc2)SC1=S | – |
| 850 nM | O=C(NS(=O)(=O)c1ccc([N+](=O)[O-])cc1)[C@H](Cc1ccccc1)N1C(=O)/C(=C/c2ccc(-c3ccc(C(F)(F)F)cc3)cc2)SC1=S | – |
| 700 nM | O=C(NS(=O)(=O)c1ccc(Cl)c([N+](=O)[O-])c1)[C@H](Cc1ccc(Br)cc1)N1C(=O)/C(=C/c2ccc(-c3ccc(Cl)cc3)cc2)SC1=S | – |
| 710 nM | O=C(NS(=O)(=O)c1ccc([N+](=O)[O-])cc1)[C@H](Cc1ccc(Br)cc1)N1C(=O)/C(=C/c2ccc(-c3ccc(Cl)cc3)cc2)SC1=S | IC50 (K562): 9440 nM; IC50 (cells): 24100 nM; Ki [2]: 63 nM; Ki (Bcl-2-like protein 1; read-out: Ki): 490 nM; IC50 (MDA-MB-231): 28600 nM |
| 360 nM | O=C(NS(=O)(=O)c1ccc([N+](=O)[O-])cc1)[C@H](Cc1ccc(Br)cc1)N1C(=O)/C(=C/c2ccc(-c3ccc([N+](=O)[O-])cc3)cc2)SC1=S | IC50 (K562): 7900 nM; IC50 (cells): 40700 nM; Ki [2]: 74 nM; Ki (Bcl-2-like protein 1): Not Active; IC50 (MDA-MB-231): 30400 nM |
| 900 nM | O=C(NS(=O)(=O)c1ccc([N+](=O)[O-])cc1)[C@H](Cc1ccc(Br)cc1)N1C(=O)/C(=C/c2ccc(-c3ccc(C(F)(F)F)cc3)cc2)SC1=S | – |
